pIC50: −log10 of the molar value. Like-named read-outs stand apart in the source and are kept apart here.
Assays:
[1] = system: colon cancer cell line SW620 cells; assay: Cytotoxicity in colon cancer cell line SW620 with MTS assay; type: cell-based; conditions: for pIC50: read-out: IC50 in SW620
Procedure: The cytotoxicity of compounds DNR-1-DNR-6 prepared in this manner was examined in colon cancer cell line SW620 cells with MTS assay. […] Then 20 μL MTS/PMS assay solution was added to each well and the absorbance was recorded. The cell survival was calculated as percentage of cell control group without treatment. The IC50 of all these compounds against colon cancer cell line SW620 are summarized in Table 1 and graphically illustrated in FIGS. 1A and 1B. These IC50 values were calculated by WinNonlin 4.1 (Pharsight) from the dose-response curves of percentage of cell growth with the model: E=Emax−(Emax−E0)×[C/(C+EC50)].

leukemia cells K562 = assay: Cytotoxicity in drug-sensitive leukemia K562 cells by MTS assay; type: cell-based; conditions: Homo sapiens; for pIC50: drug-sensitive K562, MTS assay, 72 hours, read-out: IC50 in K562; for IC50: drug-sensitive K562, values given in text in nM, read-out: IC50 against K562
Procedure: The drug resistance index (DRI, ratio of IC50 in drug-resistant cells over IC50 in drug-sensitive cells) is a good indicator of drug's ability to overcome resistance.
The anticancer activities of Compounds 1-6 were examined in leukemia cells K562 and doxorubicin-resistant K562/Dox cells by MTS assay. The drug-resistant K562/Dox cell line was induced by doxorubicin treatment. The cell line was cultured in 0.1 μM doxorubicin one week/per month, followed by 10 days culture without doxrubicin before experiment. This is to maintain similar high levels of P-gp expression in each experiment. In drug-resistant K562 cells, MDR1 mRNA was induced by 600-fold higher than drug-sensitive K562 cells as measured by real-time PCR (data not shown). […] Then 20 μL MTS/PMS assay solution was added to each well and the absorbance was recorded. The cell survival was calculated as percentage of cell control group without treatment. The anticancer activities are summarized in Table 2 and graphically illustrated in FIG. 5. The IC50 values were calculated by WinNonlin 4.1 (Pharsight) from the dose-response curves of percentage of cell growth with the model: E=Emax−(Emax−E0)×[C/(C+EC50)]

[2] = system: doxorubicin-resistant K562/Dox cells; assay: Cytotoxicity in doxorubicin-resistant K562/Dox cells by MTS assay; type: cell-based; conditions: for DRI (drug resistance index): ratio of IC50 in drug-resistant cells over IC50 in drug-sensitive cells; for pIC50: Homo sapiens, drug-resistant K562/Dox, MTS assay, 72 hours
Procedure: The drug-resistant K562/Dox cell line was induced by doxorubicin treatment. The cell line was cultured in 0.1 μM doxorubicin one week/per month, followed by 10 days culture without doxrubicin before experiment. This is to maintain similar high levels of P-gp expression in each experiment. […] Then 20 μL MTS/PMS assay solution was added to each well and the absorbance was recorded. The cell survival was calculated as percentage of cell control group without treatment. […] The IC50 values were calculated by WinNonlin 4.1 (Pharsight) from the dose-response curves of percentage of cell growth with the model: E=Emax−(Emax−E0)×[C/(C+EC50)]

P-gp = target: T1, P-gp (Homo sapiens, UniProt P08183); assay: P-gp export (uptake and efflux by FACS) in K562/Dox cells with or without CsA; type: cell-based; conditions: CsA 5 μM, 30 min incubation
T1 construct: endogenous in cells; host or cells: K562/Dox (doxorubicin-induced drug-resistant K562 leukemia cells)
T1 sequence (P08183 whole entry): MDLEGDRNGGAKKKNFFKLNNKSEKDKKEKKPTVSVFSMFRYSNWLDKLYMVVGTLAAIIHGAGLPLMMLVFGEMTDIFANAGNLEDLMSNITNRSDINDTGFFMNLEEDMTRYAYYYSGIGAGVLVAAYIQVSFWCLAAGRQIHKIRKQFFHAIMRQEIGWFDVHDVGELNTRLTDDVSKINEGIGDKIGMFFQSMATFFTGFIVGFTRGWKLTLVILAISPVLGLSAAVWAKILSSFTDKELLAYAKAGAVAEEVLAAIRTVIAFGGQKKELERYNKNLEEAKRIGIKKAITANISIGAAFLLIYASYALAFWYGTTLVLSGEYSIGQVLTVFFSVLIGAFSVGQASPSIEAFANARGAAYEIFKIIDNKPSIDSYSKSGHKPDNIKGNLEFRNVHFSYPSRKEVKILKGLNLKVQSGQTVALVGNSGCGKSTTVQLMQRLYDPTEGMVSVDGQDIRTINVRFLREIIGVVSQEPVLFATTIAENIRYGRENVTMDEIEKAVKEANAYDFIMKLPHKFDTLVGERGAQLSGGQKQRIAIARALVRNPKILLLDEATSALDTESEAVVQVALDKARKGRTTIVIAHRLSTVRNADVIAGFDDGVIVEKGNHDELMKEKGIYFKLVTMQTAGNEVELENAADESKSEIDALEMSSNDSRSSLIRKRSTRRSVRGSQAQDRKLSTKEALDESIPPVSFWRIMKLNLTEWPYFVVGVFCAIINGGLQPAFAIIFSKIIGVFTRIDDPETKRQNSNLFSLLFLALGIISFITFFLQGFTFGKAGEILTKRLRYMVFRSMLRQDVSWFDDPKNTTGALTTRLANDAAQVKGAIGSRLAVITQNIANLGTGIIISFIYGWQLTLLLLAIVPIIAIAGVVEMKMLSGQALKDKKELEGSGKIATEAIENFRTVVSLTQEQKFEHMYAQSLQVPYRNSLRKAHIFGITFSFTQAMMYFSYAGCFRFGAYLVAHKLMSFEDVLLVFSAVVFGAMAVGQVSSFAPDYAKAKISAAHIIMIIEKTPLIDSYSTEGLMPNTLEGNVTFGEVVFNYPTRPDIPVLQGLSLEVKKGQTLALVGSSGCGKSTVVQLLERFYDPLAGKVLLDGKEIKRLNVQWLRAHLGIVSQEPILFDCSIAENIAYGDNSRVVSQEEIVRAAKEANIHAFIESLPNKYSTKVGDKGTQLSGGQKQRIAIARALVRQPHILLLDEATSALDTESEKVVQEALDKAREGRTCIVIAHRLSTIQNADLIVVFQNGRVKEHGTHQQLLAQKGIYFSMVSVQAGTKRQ

K562/Dox = type: cell-based
[3] = system: drug-resistant leukemia K562/Dox xenograft; assay: K562/Dox leukemia xenograft mouse model; conditions: for tumor growth inhibition (in words): 5 or 10 mg/kg intraperitoneally twice per week for three weeks, one week after dose
Procedure: In this animal model, 10^7 drug-resistant leukemia K562/Dox was injected subcutaneously into nude mice. […] The tumor volume was measured every three days.

[4] = 10 mg/kg twice per week for three weeks

Question: For `COc1cccc2c1C(=O)c1c(O)c3c(c(O)c1C2=O)C[C@@](O)(C(C)=O)C[C@@H]3O` [DNR-A, reference compound], which “fold lower cytotoxicity than compounds DNR-1-DNR-6” value [1] is on record?
Answer: The value was 70-100 fold.

Question: And the pIC50 ([1]; MTS assay, 72 hours)?
Answer: Its pIC50 is under 5.70.

Question: Which results are given for `COc1cccc2c1C(=O)c1c(O)c3c(c(O)c1C2=O)C[C@@](O)(C(C)=O)C[C@@H]3OC1CC(N=[N+]=[N-])C(OC2CCC(O)C(C)O2)C(C)O1` (stereo partly drawn) [Compound 1]?
Answer: pIC50 (leukemia cells K562): 6.10; IC50 (leukemia cells K562): 200 to 1100 nM; DRI (drug resistance index) [2]: 2.45

Question: `COc1cccc2c1C(=O)c1c(O)c3c(c(O)c1C2=O)C[C@@](O)(C(C)=O)C[C@@H]3OC1OC(C)C(O)C(O)C1O` (stereo partly drawn) [DNR-1] was tested. Which pIC50 ([1]; Homo sapiens, SW-620, 72 h) did it give?
Answer: Its pIC50 is 6.58.

Question: `COc1cccc2c1C(=O)c1c(O)c3c(c(O)c1C2=O)C[C@@](O)(C(C)=O)C[C@@H]3O[C@H]1C[C@H](N)[C@H](O)[C@H](C)O1` [DNR, daunorubicin, reference compound] was tested. Which pIC50 ([1]; Homo sapiens, SW-620, 72 h) did it give?
Answer: Its pIC50 is 7.48.

Question: And the pIC50 (leukemia cells K562)?
Answer: Its pIC50 is 7.82.

Question: What about the IC50 (leukemia cells K562) of the same compound?
Answer: The IC50 was 15 nM.

Question: What about the pIC50 ([2]; K562, 72 h) of the same compound?
Answer: The pIC50 was under 5.30.

Question: What about the “effect of P-gp inhibitor (CsA) on retention of drug in K562/Dox cells, uptake and efflux phases” value (P-gp) of the same compound?
Answer: Its value is “significantly inhibited the drug efflux and increased drug accumulation”.

Question: What about the “cell killing effect in combination with CsA” value (K562/Dox) of the same compound?
Answer: The value was “more than 70%”.

Question: And the “cell killing effect, drug alone” value (K562/Dox)?
Answer: Its value is 30%.

Question: And the “time by which 50% mice died” value ([3]; 10 mg/kg)?
Answer: The value was under 20 days.

Question: What about the body weight decrease [3, 4] of the same compound?
Answer: The body weight decrease was “more than 70%”.

Question: What about the “time by which all mice died” value ([3]; 10 mg/kg, due to both tumor growth and drug toxicity) of the same compound?
Answer: Its value is under 30 days.

Question: What about the “tumor growth inhibition (in words)” value [3] of the same compound?
Answer: Its value is “significantly inhibited tumor growth”.

Question: `COc1cccc2c1C(=O)c1c(O)c3c(c(O)c1C2=O)C[C@@](O)(C(C)=O)C[C@@H]3OC1CC(OC)C(O)C(C)O1` (stereo partly drawn) [DNR-4] was tested. Which pIC50 ([1]; Homo sapiens, SW-620, 72 h) did it give?
Answer: The pIC50 was 6.98.

Question: `COc1cccc2c1C(=O)c1c(O)c3c(c(O)c1C2=O)C[C@@](O)(C(C)=O)C[C@@H]3OC1CCC(O)C(C)O1` (stereo partly drawn) [DNR-5] was tested. Which pIC50 ([1]; Homo sapiens, SW-620, 72 h) did it give?
Answer: The pIC50 was 6.46.

Question: With `COc1cccc2c1C(=O)c1c(O)c3c(c(O)c1C2=O)C[C@@](O)(C(C)=O)C[C@@H]3OC1CC(C)(OC)C(O)C(C)O1` (stereo partly drawn) [DNR-3] as the compound, how does the pIC50 ([1]; Homo sapiens, SW-620, 72 h) read?
Answer: The pIC50 was under 6.00.

Question: `COc1cccc2c1C(=O)c1c(O)c3c(c(O)c1C2=O)C[C@@](O)(C(C)=O)C[C@@H]3OC1CC(N=[N+]=[N-])C(OC2CC(N=[N+]=[N-])C(O)C(C)O2)C(C)O1` (stereo partly drawn) [Compound 6] was tested. Which pIC50 (leukemia cells K562) did it give?
Answer: The pIC50 was 5.95.

Question: And the pIC50 ([2]; K562, 72 h)?
Answer: Its pIC50 is 5.19.

Question: What about the “DRI (drug resistance index)” value [2] of the same compound?
Answer: Its value is 5.64.

Question: What does the source list for `COc1cccc2c1C(=O)c1c(O)c3c(c(O)c1C2=O)C[C@@](O)(C(C)=O)C[C@@H]3OC1CC(N=[N+]=[N-])C(OC2CC(O)C(O)C(C)O2)C(C)O1` (stereo partly drawn) [Compound 2]?
Answer: pIC50 (leukemia cells K562): 6.54; IC50 (leukemia cells K562): 200 to 1100 nM; pIC50 ([2]; K562, 72 h): 5.26; DRI (drug resistance index) [2]: 18.94

Question: Which “cytotoxicity in SW620 (in words)” value ([1]; FIG. 1B) does the source give for `COc1cccc2c1C(=O)c1c(O)c3c(c(O)c1C2=O)C[C@@](O)(C(C)=O)C[C@@H]3OC1CCC(N=[N+]=[N-])C(C)O1` (stereo partly drawn) [DNR-6] here?
Answer: Its value is “lost its cytotoxicity”.

Question: And the pIC50 ([1]; Homo sapiens, SW-620, 72 h)?
Answer: The pIC50 was under 6.00.

Question: Which results are given for `COc1cccc2c1C(=O)c1c(O)c3c(c(O)c1C2=O)C[C@@](O)(C(C)=O)C[C@@H]3OC1CC(N=[N+]=[N-])C(O)C(C)O1` (stereo partly drawn) [ADNR, 3′-azido-deamino-daunorubicin]?
Answer: pIC50 (leukemia cells K562): 7.12; fold more active than DNR against drug-resistant K562 cells [2]: at least 5 fold; pIC50 [2]: 6.00; DRI (drug resistance index) [2]: 13; DRI (drug resistance index) ([2]; listed as 8): 13.3; fold lower DRI than that of DNR ([2]; versus DNR): 25 fold; cell killing effect, drug alone (K562/Dox; 1 μM, K562/Dox, without CsA): more than 50%; cell killing effect in combination with CsA (K562/Dox; drug 1 μM plus CsA 5 μM, K562/Dox): did not change the cell killing effects; fold higher maximum growth inhibition rate than DNR ([3]; 5 mg/kg): 2.5 fold; body weight decrease [3, 4]: did not show any significant body weight change; survival after 50 days [3, 4]: 100%; tumor growth inhibition (in words) [3]: significantly inhibited tumor growth

Question: With `COc1cccc2c1C(=O)c1c(O)c3c(c(O)c1C2=O)C[C@@](O)(C(C)=O)C[C@@H]3OC1CC(N=[N+]=[N-])C(OC2CC(C)(OC)C(O)C(C)O2)C(C)O1` (stereo partly drawn) [Compound 4] as the compound, how does the pIC50 (leukemia cells K562) read?
Answer: Its pIC50 is 6.65.

Question: And the IC50 (leukemia cells K562)?
Answer: Its IC50 is 200 to 1100 nM.

Question: And the pIC50 ([2]; K562, 72 h)?
Answer: Its pIC50 is 4.92.

Question: What about the “DRI (drug resistance index)” value [2] of the same compound?
Answer: Its value is 53.64.
